Emax data for 34 compounds are collected here from patent publication US7160888B2, “[1,8]naphthyridin-2-ones and related compounds for the treatment of schizophrenia” (Warner Lambert Company LLC, priority 2003, dated 2007).

SMILES strings stand for the structures.

Sequence of D2 receptor (P14416 whole entry): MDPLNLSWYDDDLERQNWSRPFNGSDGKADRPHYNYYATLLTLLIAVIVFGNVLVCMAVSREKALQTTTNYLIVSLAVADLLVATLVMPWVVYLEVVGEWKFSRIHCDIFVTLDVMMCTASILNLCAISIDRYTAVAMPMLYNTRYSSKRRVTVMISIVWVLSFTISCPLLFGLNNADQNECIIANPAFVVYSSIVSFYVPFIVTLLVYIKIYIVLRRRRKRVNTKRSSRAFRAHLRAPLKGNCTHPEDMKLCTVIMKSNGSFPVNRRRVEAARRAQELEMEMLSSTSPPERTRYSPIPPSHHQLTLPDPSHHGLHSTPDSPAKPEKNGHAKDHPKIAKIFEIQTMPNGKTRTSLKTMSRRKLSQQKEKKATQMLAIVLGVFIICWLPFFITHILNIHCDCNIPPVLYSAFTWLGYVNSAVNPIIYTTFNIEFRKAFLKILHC

The first experiment concerns the target D2 receptor (Homo sapiens, UniProt P14416). Briefly: [3H]Thymidine uptake assay for D2 intrinsic activity. The experiment is classed as cell-based. As to conditions: Table 1; test compound 1 μM; 1 μM Quinpirole = 100% intrinsic activity.
`CC(F)(F)c1ccccc1N1CCN(CCCCOc2ccc3c(n2)NC(=O)CC3)CC1` [Example A42, 7-(4-{4-[2-(1,1-Difluoro-ethyl)-phenyl]-piperazin-1-yl}-butoxy)-3,4-dihydro-1H-[1,8]naphthyridin-2-one]: the Emax (commonly the maximal effect, on the per cent scale that the assay sets) at 1 µM was 28%.
`O=C1CCc2ccc(OCCCCN3CCN(c4ccccn4)CC3)nc2N1` [Example A43, 7-[4-(4-Pyridin-2-yl-piperazin-1-yl)-butoxy]-3,4-dihydro-1H-[1,8]naphthyridin-2-one]: the Emax at 1 µM came out at 75%.
In the case of `Cc1cccc(N2CCN(CCCCOc3ccc4c(n3)NC(=O)CC4)CC2)n1` [Example A44, 7-{4-[4-(6-Methyl-pyridin-2-yl)-piperazin-1-yl]-butoxy}-3,4-dihydro-1H-[1,8]naphthyridin-2-one], the Emax at 1 µM was 51%.
`CCc1cccc(N2CCN(CCCCOc3ccc4c(n3)NC(=O)CC4)CC2)n1` [Example A45, 7-{4-[4-(6-Ethyl-pyridin-2-yl)-piperazin-1-yl]-butoxy}-3,4-dihydro-1H-[1,8]naphthyridin-2-one] showed an Emax at 1 µM of 34%.
`O=C1CCc2ccc(OCCCCN3CCN(c4cccc(C5CC5)n4)CC3)nc2N1` [Example A46, 7-{4-[4-(6-Cyclopropyl-pyridin-2-yl)-piperazin-1-yl]-butoxy}-3,4-dihydro-1H-[1,8]naphthyridin-2-one] registered an Emax at 1 µM of 41%.
Still for that read-out and setting: next, `O=C1CCc2ccc(OCCCCN3CCN(c4cccc5ccccc45)CC3)nc2N1` [Example A48, 7-[4-(4-Naphthalen-1-yl-piperazin-1-yl)-butoxy]-3,4-dihydro-1H-[1,8]naphthyridin-2-one]: 34%; `O=C1CCc2ccc(OCCCCN3CCN(c4cc(F)cc5c4CCCC5)CC3)nc2N1` [Example A50, 7-{4-[4-(3-Fluoro-5,6,7,8-tetrahydro-naphthalen-1-yl)-piperazin-1-yl]-butoxy}-3,4-dihydro-1H-[1,8]naphthyridin-2-one]: 14%.
The compound `O=C1CCc2ccc(OCCCCN3CCN(c4cccc5c4C(=O)CCC5)CC3)nc2N1` [Example A51, 7-{4-[4-(8-Oxo-5,6,7,8-tetrahydro-naphthalen-1-yl)-piperazin-1-yl]-butoxy}-3,4-dihydro-1H-[1,8]naphthyridin-2-one] registered an Emax at 1 µM of 20%.
On to `CC1(C)CCc2cccc(N3CCN(CCCCOc4ccc5c(n4)NC(=O)CC5)CC3)c2C1=O` [Example A52, 7-{4-[4-(7,7-Dimethyl-8-oxo-5,6,7,8-tetrahydro-naphthalen-1-yl)-piperazin-1-yl]-butoxy}-3,4-dihydro-1H-[1,8]naphthyridin-2-one], for which the Emax at 1 µM was 32%.
The same measure, in the same setting: for `O=C1CCc2cccc(N3CCN(CCCCOc4ccc5c(n4)NC(=O)CC5)CC3)c2C1` [Example A56, 7-{4-[4-(7-Oxo-5,6,7,8-tetrahydro-naphthalen-1-yl)-piperazin-1-yl]-butoxy}-3,4-dihydro-1H-[1,8]naphthyridin-2-one] the value was 29%.
The compound `O=C1CCc2ccc(OCCCCN3CCN(c4cccc5c4CCCC5(F)F)CC3)nc2N1` [Example A59, 7-{4-[4-(5,5-Difluoro-5,6,7,8-tetrahydro-naphthalen-1-yl)-piperazin-1-yl]-butoxy}-3,4-dihydro-1H-[1,8]naphthyridin-2-one] showed an Emax at 1 µM of 30%.
As for `O=C1CCc2ccc(OCCCCN3CCN(c4cccc5c4CC(F)(F)C5)CC3)nc2N1` [Example A62, 7-{4-[4-(2,2-Difluoro-indan-4-yl)-piperazin-1-yl]-butoxy}-3,4-dihydro-1H-[1,8]naphthyridin-2-one], the Emax at 1 µM is 27%.
`O=C1CCc2ccc(OCCCCN3CCN(c4cccc5c4CCCCC5)CC3)nc2N1` [Example A63, 7-{4-[4-(6,7,8,9-Tetrahydro-5H-benzocyclohepten-1-yl)-piperazin-1-yl]-butoxy}-3,4-dihydro-1H-[1,8]naphthyridin-2-one]: the maximal response (Emax) at 1 µM came to 4%.
Take `O=C1CCc2ccc(OCCCCN3CCC(c4cccc5ccccc45)CC3)nc2N1` [Example A64, 7-[4-(4-Naphthalen-1-yl-piperidin-1-yl)-butoxy]-3,4-dihydro-1H-[1,8]naphthyridin-2-one]: the Emax at 1 µM was determined as 36%.
Regarding `O=C1CCc2ccc(OCCCCN3CCN(c4cccc5cccc(F)c45)CC3)nc2N1` [Example A66, 7-{4-[4-(8-Fluoro-naphthalen-1-yl)-piperazin-1-yl]-butoxy}-3,4-dihydro-1H-[1,8]naphthyridin-2-one], the Emax at 1 µM was 49%.
`COc1ccc2cccc(N3CCN(CCCCOc4ccc5c(n4)NC(=O)CC5)CC3)c2c1` [Example A73, 7-{4-[4-(7-Methoxy-naphthalen-1-yl)-piperazin-1-yl]-butoxy}-3,4-dihydro-1H-[1,8]naphthyridin-2-one] gave an Emax at 1 µM of 23%.
Consider `O=C1CCc2ccc(OCCCCN3CCN(c4cccc5ccc(Cl)cc45)CC3)nc2N1` [Example A74, 7-{4-[4-(7-Chloro-naphthalen-1-yl)-piperazin-1-yl]-butoxy}-3,4-dihydro-1H-[1,8]naphthyridin-2-one], for which the Emax at 1 µM worked out at 37%.
Still for that read-out and setting: next, `O=C1CCc2ccc(OCCCCN3CCN(c4cccc5c(Cl)cccc45)CC3)nc2N1` [Example A75, 7-{4-[4-(5-Chloro-naphthalen-1-yl)-piperazin-1-yl]-butoxy}-3,4-dihydro-1H-[1,8]naphthyridin-2-one]: 36%.
In turn, `O=C1CCc2ccc(OCCCCN3CCN(c4cccc5cc(Cl)ccc45)CC3)nc2N1` [Example A76, 7-{4-[4-(6-Chloro-naphthalen-1-yl)-piperazin-1-yl]-butoxy}-3,4-dihydro-1H-[1,8]naphthyridin-2-one] had an Emax at 1 µM of 16%.
The same measure, in the same setting: next, `O=C1CCc2ccc(OCCCCN3CCN(c4cccc5cccc(Cl)c45)CC3)nc2N1` [Example A77, 7-{4-[4-(8-Chloro-naphthalen-1-yl)-piperazin-1-yl]-butoxy}-3,4-dihydro-1H-[1,8]naphthyridin-2-one]: 36%; `CC(=O)c1ccc2cccc(N3CCN(CCCCOc4ccc5c(n4)NC(=O)CC5)CC3)c2c1` [Example A78, 7-{4-[4-(7-Acetyl-naphthalen-1-yl)-piperazin-1-yl]-butoxy}-3,4-dihydro-1H-[1,8]naphthyridin-2-one]: 24%.
On to `CC(=O)c1ccc2c(N3CCN(CCCCOc4ccc5c(n4)NC(=O)CC5)CC3)cccc2c1` [Example A79, 7-{4-[4-(6-Acetyl-napthalen-1-yl)-piperazin-1-yl]-butoxy}-3,4-dihydro-1H-[1,8]naphthyridin-2-one], for which the Emax at 1 µM is 24%.
For `CC(=O)c1cccc2c(N3CCN(CCCCOc4ccc5c(n4)NC(=O)CC5)CC3)cccc12` [Example A80, 7-{4-[4-(5-Acetyl-naphthalen-1-yl)-piperazin-1-yl]-butoxy}-3,4-dihydro-1H-[1,8]naphthyridin-2-one], the Emax at 1 µM is 30%.
Consider `CC(=O)c1ccc(N2CCN(CCCCOc3ccc4c(n3)NC(=O)CC4)CC2)c2ccccc12` [Example A81, 7-{4-[4-(4-Acetyl-naphthalen-1-yl)-piperazin-1-yl]-butoxy}-3,4-dihydro-1H-[1,8]naphthyridin-2-one], for which the Emax at 1 µM came out at 4%.
On the same count and under the same terms, for `CC(=O)c1ccc2ccccc2c1N1CCN(CCCCOc2ccc3c(n2)NC(=O)CC3)CC1` [Example A82, 7-{4-[4-(2-Acetyl-naphthalen-1-yl)-piperazin-1-yl]-butoxy}-3,4-dihydro-1H-[1,8]naphthyridin-2-one] the value was 27%.
On the same count and under the same terms, next, `N#Cc1ccc2cccc(N3CCN(CCCCOc4ccc5c(n4)NC(=O)CC5)CC3)c2c1` [Example A83, 8-{4-[4-(7-Oxo-5,6,7,8-tetrahydro-[1,8]naphthyridin-2-yloxy)-butyl]-piperazin-1-yl}-naphthalene-2-carbonitrile]: 36%; `CC(=O)Nc1ccc2cccc(N3CCN(CCCCOc4ccc5c(n4)NC(=O)CC5)CC3)c2c1` [Example A84, N-(8-{4-[4-(7-Oxo-5,6,7,8-tetrahydro-[1,8]naphthyridin-2-yloxy)-butyl]-piperazin-1-yl}-naphthalen-2-yl)-acetamide]: 11%.

Staying with this experiment, now noted: Table 2; test compound 1 μM; 1 μM Quinpirole = 100% intrinsic activity.
`COc1ccc2cccc(N3CCN(CCCCOc4ccc5c(n4)NC(=O)CC5)CC3)c2n1` [Example A41′, 7-{4-[4-(2-Methoxy-quinolin-8-yl)-piperazin-1-yl]-butoxy}-3,4-dihydro-1H-[1,8]naphthyridin-2-one] gave an Emax at 1 µM of 32%.
Consider `COc1ccc2c(N3CCN(CCCCOc4ccc5c(n4)NC(=O)CC5)CC3)cccc2n1` [Example A43′, 7-{4-[4-(2-Methoxy-quinolin-5-yl)-piperazin-1-yl]-butoxy}-3,4-dihydro-1H-[1,8]naphthyridin-2-one], for which the Emax at 1 µM is 32%.
`O=C1CCc2ccc(OCCCCN3CCN(c4cccc5nccnc45)CC3)nc2N1` [Example A44′, 7-[4-(4-Quinoxalin-5-yl-piperazin-1-yl)-butoxy]-3,4-dihydro-1H-[1,8]naphthyridin-2-one] showed an Emax at 1 µM of 29%.
`O=C1CCc2ccc(OCCCCN3CCN(c4cccc5ccc(=O)[nH]c45)CC3)nc2N1` [Example A47′, 7-{4-[4-(2-Oxo-1,2-dihydro-quinolin-8-yl)-piperazin-1-yl]-butoxy}-3,4-dihydro-1H-[1,8]naphthyridin-2-one]: the Emax at 1 µM worked out at 32%.
In the case of `O=C1CCc2ccc(OCCCCN3CCN(c4cccc5c4NC(=O)CC5)CC3)nc2N1` [Example A48′, 7-{4-[4-(2-Oxo-1,2,3,4-tetrahydro-quinolin-8-yl)-piperazin-1-yl]-butoxy}-3,4-dihydro-1H-[1,8]naphthyridin-2-one], the Emax at 1 µM is 34%.
Still for that read-out and setting: next, `CN1C(=O)CCc2cccc(N3CCN(CCCCOc4ccc5c(n4)NC(=O)CC5)CC3)c21` [Example A49′, 7-{4-[4-(1-Methyl-2-oxo-1,2,3,4-tetrahydro-quinolin-8-yl)-piperazin-1-yl]-butoxy}-3,4-dihydro-1H-[1,8]naphthyridin-2-one]: 38%; `O=c1ccc2ccc(OCCCCN3CCN(c4cccc5c4OCCC5)CC3)nc2[nH]1` [Example B1′, 7-[4-(4-Chroman-8-yl-piperazin-1-yl)-butoxy]-1H-[1,8]naphthyridin-2-one]: 22%.
